Results reported in patent US9937154B2, “Use of telmisartan to prevent and treat graft versus host disease and other alloimmune and autoimmune diseases” (Hackensack University Medical Center, priority 2015, dated 2018).
“Also recorded” adds a separate entry of the source. Counter-ions that a name gives are not always drawn. Like-named read-outs stand apart in the source and are kept apart here.

Legend:
[1] = biological target: human ROCK I (Homo sapiens, UniProt Q13464); details: cited from earlier work
[2] = tested on: rat models of inflammatory and noninflammatory arthritic pain; details: cited from earlier work
[3] = biological target: T1, ROCK II (Homo sapiens, UniProt O75116); details: cited from earlier work
[4] = tested on: responding splenocytes from C3B6 hosts; assay: mouse IFN-γ ELISPOT after one-way mixed lymphocyte reaction of host splenocytes; type: cell-based
Description: Classically, a MLR is carried out by co-incubating lymphocytes from two strains that differ in histocompatibility genes for several days, and the proliferative response of T cells of one lymphocyte population to histocompatibility antigens of the other then measured.
Secretion of IFN-γ by responder cells in a MLR was used as an indicator of cytotoxic T lymphocyte function (i.e., alloreactivity). Briefly, spleens from C3B6 mice treated according to Example 1 were harvested at day 10 (C3H donor T cells migrating to the spleen with few de novo generated T cells emigrating from the host thymus) or at day 84 (spleens containing newly generated T cells maturing within the host thymus; i.e., allotolerant of host B6 parental antigens) post-transplant for use as responders. Spleens from C3H, C3B6 and DBA mice (Jackson Laboratory) were harvested for use as stimulators. Spleens were homogenized and the cells were washed twice with Phosphate Buffered Saline (PBS) (Sigma Aldrich, St. Louis, Mo., Catalog No. P5493, or equivalent). Red blood cells were separated from lymphocytes using Ficoll®. Briefly, cells were transferred to 50 mL conical tubes containing 15 mL of Ficoll®-Paque PLUS (GE Healthcare, Waukesha, Wis., Catalog No. 17-1440-03) and centrifuged at 800 rcf (1,900-2,000 rpm) for 20 minutes with centrifuge break off. After centrifugation, the buffy coat layer (containing lymphocytes) was removed and transferred to a new 50 mL conical tube. Phosphate-buffered saline (PBS) without calcium and magnesium (Gibco, Life Technologies, Carlsbad, Calif., Catalog No. 10010-023 or equivalent) was added to the buffy coat layer so that the total volume in the conical tube is equal to 50 mL. The buffy coat layer in PBS was centrifuged at 250 rcf (1,200 rpm) for 10 minutes with centrifuge brake applied. After centrifugation, the PBS was aspirated and the lymphocyte pellet was resuspended in 48 mL of PBS. Lymphocytes resuspended in PBS were centrifuged at 250 rcf (1,200 rpm) for 10 minutes with centrifuge break applied. PBS was aspirated and PBMC pellet resuspended in 12.5% Bovine Serum Albumin (BSA) (Sigma-Aldrich, St. Louis, Mo., Catalog No. A9418-5G or equivalent) in RPMI medium (Sigma-Aldrich, St. Louis, Mo., Catalog No. R7388 or equivalent). Stimulator lymphocytes (from C3H, C3B6 and DBA mouse spleens) were irradiated for 2.5 minutes (2,000 RAD) in a cesium irradiator.
One-way MLRs were performed by mixing 1×10^5 lymphocytes from both stimulator and responder cells in a 96-well ELISPOT (eBioscience, San Diego, Calif., Catalog No. 88-7384, or equivalent) capture plate coated with anti-mouse IFN-γ antibody according to manufacturer's protocol. […]

[5] = tested on: small intestinal crypts; assay: small intestine tissue sections of 90 day survivor mice; type: in vivo, mouse; details: FIG. 7
From the text: (B) Limited inflammation within dashed lines of basal layer and lamina propria, with intact crypts, in 90 day survivor Fasudil® treated mice.

[6] = tested on: C3B6 mice (GVHD model); assay: GVHD-associated skin inflammation in C3B6 mice; type: in vivo, mouse; details: ATBM+T cells+Fasudil recipient mice
Description: Skin is most commonly affected and usually the first organ involved in GVHD. Ferrara J L M, et al., Lancet. 373(9674): 1550-1561 (2009). In this study, C3B6 mice were used to determine the effect of ROCK inhibitors on GVHD-associated skin inflammation.
C3B6 mice were treated according to Example 1. […] . Skin inflammation in C3B6 treated mice occurred in the fourth week and gradually waned over a two week-period.

[7] = tested on: SAH patients; details: over 1400 SAH patients; cited from earlier work
[8] = tested on: CFSE labeled splenic lymphocytes from C3B6 hosts; assay: CFSE labeling with flow-based assessment of splenic lymphocyte division in one-way MLR; type: cell-based, mouse; details: day 98 survivor mice
Description: Carboxyfluorescein […] succinimidyl ester (CFSE) labeling (Molecular Probes, Carlsbad, Calif., Catalog No. C34554, or equivalent) with flow cytometry detection was employed to assess lymphocyte cell division in response to alloantigen recognition. Briefly, lymphocytes from responders and stimulators were harvested as described above. For this experiment, sources of stimulator cells included C3H, C3B6 and Balb/c mice. Next, lymphocytes from responders were incubated in CFSE prepared according to manufacturer's protocol at 37° C. for 10 minutes. The staining was quenched by the addition of 5 volumes of ice-cold culture media (12.5% Bovine Serum Albumin (BSA) in RPMI) to the lymphocytes. Lymphocytes were incubated on ice for 5 minutes before pelleting by centrifugation. After centrifugation, the lymphocytes were washed by resuspending and pelleting 3 times in fresh culture media. One-way MLRs were performed by mixing 1×10^5 lymphocytes from both stimulator and CFSE responder cells in a 96-well tissue culture plate (Corning Costar, Tewksbury, Mass., Catalog No. CLS3585 or equivalent). […] After 5 days of incubation, the cells were harvested and analyzed using a flow cytometer with 488 nm excitation and emission filters appropriate for fluorescein. […]

[9] = tested on: C3B6 mice (GVHD model); assay: GVHD survival in irradiated C3B6 F1 mice given ATBM and donor T cells; details: ATBM + T cells + Fasudil i.p. and p.o., n = 26
[10] = tested on: C3B6 mice (GVHD model); assay: GVHD-associated weight loss and diarrhea in C3B6 mice; type: in vivo, mouse
Description: It is well known that weight loss occurs in patients with GVHD. Jacobsohn D A, et al., Bone Marrow […]. 29(3): 231-236 (2002). […] C3B6 mice were treated according to Example 1. […] Despite the similar initial weight losses of Fasudil® treated and untreated T cell recipients, the two groups had different rates of diarrhea. […] Diarrhea resolved by the fourth week among survivors in both groups.

[11] = tested on: animal models of subarachnoid hemorrhage (SAH); details: cited from earlier work
[12] = tested on: rat model of hypertension; details: cited from earlier work
[13] = tested on: preconstricted rat aorta; details: cited from earlier work
[14] = biological target: T1, ROCK II; details: cited from earlier work; remark: listed apart in the source
[15] = tested on: neutrophil migration; details: cited from earlier work
[16] = in vivo; cited from earlier work
[17] = tested on: ROCK; details: cited from earlier work
[18] = tested on: transplant patients (IT GVHD); details: cited from earlier work

T1 sequence (O75116 whole entry): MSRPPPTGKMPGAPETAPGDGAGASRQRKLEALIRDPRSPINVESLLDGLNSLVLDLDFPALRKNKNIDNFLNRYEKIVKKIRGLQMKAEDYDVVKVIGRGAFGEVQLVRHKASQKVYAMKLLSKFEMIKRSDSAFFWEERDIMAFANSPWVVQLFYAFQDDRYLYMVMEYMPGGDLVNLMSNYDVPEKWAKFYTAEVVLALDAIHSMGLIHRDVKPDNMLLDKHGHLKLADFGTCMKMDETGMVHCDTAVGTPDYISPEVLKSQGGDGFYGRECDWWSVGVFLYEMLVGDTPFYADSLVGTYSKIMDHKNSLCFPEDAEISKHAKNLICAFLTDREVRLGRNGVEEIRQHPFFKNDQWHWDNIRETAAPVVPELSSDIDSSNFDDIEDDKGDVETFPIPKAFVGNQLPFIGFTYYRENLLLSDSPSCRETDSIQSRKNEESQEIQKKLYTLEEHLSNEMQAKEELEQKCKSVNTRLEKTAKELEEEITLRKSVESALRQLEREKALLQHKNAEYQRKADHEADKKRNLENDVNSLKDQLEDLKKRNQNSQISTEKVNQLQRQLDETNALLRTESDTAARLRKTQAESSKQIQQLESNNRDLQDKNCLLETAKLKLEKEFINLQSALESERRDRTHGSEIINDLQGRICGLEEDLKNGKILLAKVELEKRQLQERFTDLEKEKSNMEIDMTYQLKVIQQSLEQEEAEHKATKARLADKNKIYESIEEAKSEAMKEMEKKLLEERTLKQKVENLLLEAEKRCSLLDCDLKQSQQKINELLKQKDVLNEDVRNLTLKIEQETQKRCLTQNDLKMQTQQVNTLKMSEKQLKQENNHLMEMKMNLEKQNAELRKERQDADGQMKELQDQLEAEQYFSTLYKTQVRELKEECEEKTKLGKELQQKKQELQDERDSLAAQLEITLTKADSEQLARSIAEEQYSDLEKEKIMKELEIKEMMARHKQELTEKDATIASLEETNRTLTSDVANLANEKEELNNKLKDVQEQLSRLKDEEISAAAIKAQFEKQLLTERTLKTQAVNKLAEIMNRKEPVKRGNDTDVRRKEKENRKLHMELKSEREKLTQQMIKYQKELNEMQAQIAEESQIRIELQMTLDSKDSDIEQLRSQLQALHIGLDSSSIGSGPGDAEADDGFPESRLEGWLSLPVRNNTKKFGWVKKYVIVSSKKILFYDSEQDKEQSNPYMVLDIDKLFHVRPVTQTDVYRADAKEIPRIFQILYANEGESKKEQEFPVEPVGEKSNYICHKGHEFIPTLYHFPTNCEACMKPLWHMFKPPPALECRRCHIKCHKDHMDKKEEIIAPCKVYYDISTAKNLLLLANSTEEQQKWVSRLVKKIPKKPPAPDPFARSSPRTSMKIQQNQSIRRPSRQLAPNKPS
Sequence of human ROCK I (Q13464 whole entry): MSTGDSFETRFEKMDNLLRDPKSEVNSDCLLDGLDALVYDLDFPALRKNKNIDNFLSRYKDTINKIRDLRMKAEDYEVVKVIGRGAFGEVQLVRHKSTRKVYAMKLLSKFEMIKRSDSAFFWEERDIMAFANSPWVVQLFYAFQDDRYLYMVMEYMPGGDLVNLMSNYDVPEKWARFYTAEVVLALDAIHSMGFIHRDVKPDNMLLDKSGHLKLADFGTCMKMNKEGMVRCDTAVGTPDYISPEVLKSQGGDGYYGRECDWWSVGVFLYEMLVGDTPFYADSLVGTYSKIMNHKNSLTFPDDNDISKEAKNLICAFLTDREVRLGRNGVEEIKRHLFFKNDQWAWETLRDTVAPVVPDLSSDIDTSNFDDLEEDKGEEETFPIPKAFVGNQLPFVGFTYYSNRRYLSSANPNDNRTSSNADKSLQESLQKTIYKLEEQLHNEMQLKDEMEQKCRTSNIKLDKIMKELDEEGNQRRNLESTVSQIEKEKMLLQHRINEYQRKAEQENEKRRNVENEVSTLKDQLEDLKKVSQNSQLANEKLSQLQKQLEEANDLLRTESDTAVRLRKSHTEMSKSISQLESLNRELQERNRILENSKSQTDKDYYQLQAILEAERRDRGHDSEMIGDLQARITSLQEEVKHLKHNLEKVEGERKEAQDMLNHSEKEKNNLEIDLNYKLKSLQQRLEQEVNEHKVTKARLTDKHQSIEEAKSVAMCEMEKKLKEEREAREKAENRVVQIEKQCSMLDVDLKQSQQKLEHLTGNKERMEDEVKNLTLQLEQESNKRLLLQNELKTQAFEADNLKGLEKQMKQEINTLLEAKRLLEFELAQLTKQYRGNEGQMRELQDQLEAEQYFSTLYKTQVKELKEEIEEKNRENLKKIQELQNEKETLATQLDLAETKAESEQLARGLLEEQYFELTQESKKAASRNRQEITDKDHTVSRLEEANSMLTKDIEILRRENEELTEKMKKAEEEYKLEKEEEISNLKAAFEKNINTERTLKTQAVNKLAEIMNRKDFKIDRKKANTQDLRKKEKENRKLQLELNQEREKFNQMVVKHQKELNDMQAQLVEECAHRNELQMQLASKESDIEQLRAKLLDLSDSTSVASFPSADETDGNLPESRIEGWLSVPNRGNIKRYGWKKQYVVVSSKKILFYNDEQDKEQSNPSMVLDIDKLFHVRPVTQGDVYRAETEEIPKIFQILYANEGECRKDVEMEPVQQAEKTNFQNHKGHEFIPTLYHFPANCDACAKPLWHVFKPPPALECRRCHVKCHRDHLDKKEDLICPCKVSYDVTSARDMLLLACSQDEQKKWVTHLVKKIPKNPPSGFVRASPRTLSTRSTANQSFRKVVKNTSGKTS

For `O=C(Nc1ccc(-c2ccncc2)cc1)N[C@H](CO)c1ccccc1` [AS 1892802], the IC50 [1] is given as 122 nM, the analgesic effects [2] is given as “exhibits analgesic effects” and the IC50 [3] is given as 52 nM.
With `O=S(=O)(c1cccc2cnccc12)N1CCCNCC1` [Fasudil®, Fasudil] the “Day 10 IFN-γ secreting spleen cell frequencies” value ([4]; Concanavalin A positive control) was 120.0 per 100,000 cells, the “Day 10 IFN-γ secreting spleen cell frequencies” value ([4]; irradiated stimulators C3B6F1 (host), 4 day one-way MLR) was 115.6 per 100,000 cells and the “Day 10 IFN-γ secreting spleen cell frequencies” value ([4]; irradiated stimulators C3H (self), 4 day one-way MLR) was 2.3 per 100,000 cells. For the same compound, the “Day 10 IFN-γ secreting spleen cell frequencies” value ([4]; irradiated stimulators DBA (third party), 4 day one-way MLR) was 18 per 100,000 cells, the “small intestinal crypt inflammation” value [5] was “minimal small intestinal crypt inflammation” and the skin inflammation [6] was “did not prevent skin inflammation”. For the same compound, the tolerability and safety [7] was “well tolerated and safe”, the “spleen cell division in response to B6C3F1 stimulation” value ([8]; FIG. 6-E) was “strongly responded to B6C3F1 stimulation” and the “spleen cell division in response to Balb/c stimulation” value ([8]; FIG. 6-F) was “comparable to their response to Balb/c”. The “Survival Rate (95% CI), 90 day” value [9] was 73%, the “Survival Rate (95% CI), 90 day” value ([9]; listed as Fasudil ®) was 73% (55%-88%) and the “mice developing clinically observable diarrhea” value ([10]; between second and third weeks post-transplant) was “less than 20%”. The weight loss ([10]; first three weeks post-transplant, roughly the same as ATBM+T cells mice) was roughly 25 % total body weight, the subsequent weight recovery ([10]; most experiments, data not shown) was “recovered more weight than ATBM+T cells recipient mice” and the “blood vessel spasm and constriction after subarachnoid bleeding” value [11] was “effective in reversing blood vessel spasm and constriction”.
For `CCn1c(-c2nonc2N)nc2cnc(Oc3cccc(NC(=O)c4ccc(OCCN5CCOCC5)cc4)c3)cc21` [GSK 269962], the blood pressure [12] is listed as “lower blood pressure” and the vasorelaxation [13] is listed as “induce vasorelaxation”.
In the case of `Cc1cncc2cccc(S(=O)(=O)N3CCCN(C(=O)CN)C[C@@H]3C)c12` [Glycyl-H-1152 dihydrochloride], the IC50 [14] is listed as 11.8 nM.
In the case of `Cl.O=c1[nH]ccc2c(S(=O)(=O)N3CCCNCC3)cccc12` [HA 1100 hydrochloride], the neutrophil migration [15] is listed as “inhibit neutrophil migration” and the vasodilatory effects [16] is listed as “potent vasodilatory effects”.
In the case of `c1ccc2c(-c3ccncc3)c[nH]c2c1` [Rockout®], the IC50 ([17]; ATP-competitive, reversible) is given as 25000 nM and the “effect on the activation of ROCK” value [17] is given as “does not inhibit the activation of ROCK”.
For maraviroc, the “IT GVHD and acute (within 100 days) death” value [18] is listed as “prevented IT GVHD and acute (within 100 days) death; also recorded: no acute deaths”.
